Results taken from patent publication US7820698B2, “Phosphodiesterase-4 inhibitors belonging to the tertiary amine class” (Chiesi Farmaceutici S.p.A., priority 2008, dated 2010).

Columns and labels:
[1] = test system: LPS-induced TNF-α release in peripheral blood mononuclear cells (PBMCs); assay: In vitro determination of PDE4 inhibitory activity in the peripheral blood mononuclear cells (PBMCs) assay; type: cell-based; conditions: PBMC; human PBMCs, LPS (3 ng/ml), 18 hours, TNF-α by ELISA
Method: The assay, which is based on the known inhibitory activity exerted by PDE4 inhibitors on the lipopolysaccharides (LPS)-induced tumour necrosis factor-alpha (TNF-α release in peripheral blood mononuclear cells (PBMCs), was performed according to the method described by A. Hatzelmann, et al., J. Pharmacol. Exp. Ther., 2001; 297:267-279 and by R. Draheim, et al., J. Pharmacol. Exp. Ther., 2004; 308:555-563.
Cryopreserved human PBMCs, (100 μl/well) were incubated in 96-well plates (10^5 cells/well), for 30 minutes, in the presence or absence (50 microl) of the test compounds whose concentrations ranged from 10^−12 M to 10^−6 M. Subsequently, LPS (3 ng/ml) was added.
After 18 hours incubation at 37° C. in a humidified incubator under an atmosphere of 95% air and 5% CO2, culture medium was collected and TNF-α measured by ELISA. The results are expressed as mean±95% confidence limits of the molar concentration of the test compound producing 50% inhibition of LPS-induced TNF-α release (IC50).
The effects of the tested compounds were calculated as percent inhibition of TNF-α release, assuming LPS-induced TNF-α production in the absence of inhibitor compound as 100% and basal TNF-α production of PBMCs in the absence of LPS as 0%.

PDE4 enzyme = assay: In vitro determination of PDE4 inhibitory activity in the cell free assay; type: biochemical, human; conditions: U937 cell supernatant, 1.6 μM cAMP, 30° C. for 30 minutes, cAMP disappearance
Method: The U937 human monocytic cell line was used as source of PDE4 enzyme. Cells were cultured, harvested and supernatant fraction prepared essentially as described in T. J. Torphy, et al., J. Pharmacol. Exp. Ther., 1992; 263:1195-1205.
PDE4 activity was determined in cells supernatants by assaying cAMP disappearance from the incubation mixtures. 50 μl of cell supernatant were incubated at 30° C. for 30 minutes in a final volume of 200 μl in the presence of 1.6 μM cAMP with or without the test compound (50 μl).
The concentration of the test compounds ranged between 10^−12 M and 10^−6 M.
Reactions were stopped by heat inactivation (2.5 minutes at 100° C.), and residual cAMP was measured using an electrochemiluminescence (ECL)-based immunoassay.
The results are expressed as mean±95% confidence limits of the molar concentration of the test compound producing 50% inhibition of cAMP disappearance (IC50).
Percentage of inhibition of PDE4 activity was calculated, assuming cAMP disappearance in the absence of inhibitors as 100% and cAMP disappearance in heat inactivated samples as 0%.

Row | Compound | IC50 [1] [nM] | IC50 (PDE4 enzyme) [nM]
1 | COc1ccc(N(Cc2ccc(F)cc2)Cc2c(Cl)cncc2Cl)cc1OC [Compound C1, (3,5-Dichloro-pyridin-4-ylmethyl)-(3,4-dimethoxy-phenyl)-(4-fluoro-benzyl)-amine] | 661 | 81
2 | COc1cccc(CN(Cc2c(Cl)cncc2Cl)c2ccc(OC)c(OC)c2)c1 [Compound C3, (3,5-Dichloro-pyridin-4-ylmethyl)-(3,4-dimethoxy-phenyl)-(3-methoxy-benzyl)-amine] | 184 | 140
3 | COc1ccc(N(Cc2ccc(S(C)(=O)=O)cc2)Cc2c(Cl)cncc2Cl)cc1OC [Compound C4, (3,5-Dichloro-pyridin-4-ylmethyl)-(3,4-dimethoxy-phenyl)-(4-methanesulfonyl-benzyl)-amine] | 198 | 60
4 | COc1ccc(N(Cc2ccco2)Cc2c(Cl)cncc2Cl)cc1OC [Compound C9, (3,5-Dichloro-pyridin-4-ylmethyl)-(3,4-dimethoxy-phenyl)-furan-2-ylmethyl-amine] | 47.8 | 
5 | COc1ccc(N(Cc2ccc(S(N)(=O)=O)cc2)Cc2c(Cl)cncc2Cl)cc1OC [Compound C10, 4-{[(3,5-Dichloro-pyridin-4-ylmethyl)-(3,4-dimethoxy-phenyl)-amino]-methyl}-benzenesulfonamide] | 38 | 38
6 | COc1ccc(CN(Cc2c(Cl)cncc2Cl)c2ccc(OC)c(OC)c2)cc1 [Compound C13, (3,5-Dichloro-pyridin-4-ylmethyl)-(3,4-dimethoxy-phenyl)-(4-methoxy-benzyl)-amine] | 9.85 | 97.1
7 | CCOc1cc(N(Cc2ccc(OC)cc2)Cc2c(Cl)cncc2Cl)ccc1OC [Compound C14, (3,5-Dichloro-pyridin-4-ylmethyl)-(3-ethoxy-4-methoxy-phenyl)-(4-methoxy-benzyl)-amine] | 117 | 27
